# Measurements reported in PMC10112268, “Inhibition of Human Coronaviruses by Combinations of Host-Targeted and Direct-Acting Antivirals” (Antimicrobial Agents and Chemotherapy, 2023).
# Read-outs that look alike come from different tables or passages of the source.
# Assays:
# HCoV-229E-GFP [1] = test: Time of addition assay; assay type: cell-based; conditions: for IC50: Human coronavirus 229E, 24 hpi
# HCoV-OC43 [2] = test: Time of addition assay; assay type: cell-based; conditions: for IC50: 48 hpi
# HCoV-OC43 [3] = test: Direct virucidal effect on virus particles; conditions: 10^5 PFU, 1 h at room temperature; LG 0 to 300 μM, VPA 0 to 300 mM
# in vitro [4] = conditions: human
# in vitro [5] = conditions: African green monkey
# [6] = system: SARS-CoV-2 isolate MAD6 (Wuhan-Hu-1 strain); test: Time of addition assay; assay type: cell-based; conditions: for IC50: 24 hpi, read-out: IC50, SARS-CoV-2 production
# HCoV-229E-GFP [7] = test: Direct virucidal effect on virus particles; conditions: 10^5 PFU, 1 h at room temperature; LG 0 to 300 μM, VPA 0 to 300 mM
# [8] = system: HCoV-229E, HCoV-OC43, and SARS-CoV-2; test: Antiviral assays, summary over all tested HCoVs; assay type: cell-based, human coronaviruses
# [9] = system: SARS-CoV-2 isolate 39896362_AG (omicron strain); test: microbe, parasite or virus in culture; assay type: cell-based; conditions: […], Fig. 1
# HCoV-OC43 [10] = assay type: cell-based; conditions: at 32 μM LG; no drug 3.2 ± 0.2 × 10^6
# FMDV = conditions: mouse, cited from earlier work
# SARS-CoV-2 (MAD6) = test: Drug combination (synergy) study, virus yield in Calu3 2B4, CompuSyn; assay type: cell-based
# HCoV-229E-GFP [11] = test: microbe, parasite or virus in culture; assay type: cell-based; conditions: for IC50: Human coronavirus 229E
# HCoV-229E-GFP [12] = assay type: cell-based; conditions: at 16 μM LG; no drug 3.5 ± 0.6 × 10^6
# HCoV-OC43 [13] = test: microbe, parasite or virus in culture; assay type: cell-based
# [14] = system: SARS-CoV-2 isolate MAD6 (Wuhan-Hu-1 strain); test: Virus yield inhibition in infected Calu3 2B4 cells, plaque assay on Vero E6; assay type: cell-based
# SARS-CoV-2 = test: Direct virucidal effect on virus particles; conditions: 10^5 PFU, 1 h at room temperature; LG 0 to 300 μM, VPA 0 to 300 mM
# in vitro [15] = conditions: human, CC50 (MTT assay), Huh-7
# [16] = long-term toxicity studies in rats and mice; cited from earlier work
# TGEV = test: Antiviral effect against TGEV in WSL or ST cells, plaque assay on ST; assay type: cell-based, swine coronavirus TGEV; conditions: LG in WSL cells, VPA in ST cells
# Method: Figure S2. […] The inhibitory effect […]
# of LG or VPA was assayed on triplicate cultures of TGEV-infected WSL (wild swine macrophage cell line) or ST (swine testis) cells, respectively. After 1 h-pre-incubation with AVs, triplicate cultures were infected with the corresponding virus, at a MOI of 2 PFU/cell, in a reduced volume of medium containing the AV, for 2h, virus inoculum removed and cells washed twice with medium, before the addition of drug-containing fresh medium (supplemented with 2% FBS). Cultures were then incubated for 24 h at 37 °C; total virus (intracellular and extracellular) production was evaluated by plaque assay on triplicate cultures of ST cells. Left y-axis represents infectious virus progeny at 24 hpi and right y-axis, cell viability determined by MTT assay of each corresponding cell line. IC50 values and SI values […]
# [TGEV titers (PFU/ml): 1.1±0.1 x 108 in the absence of the drugs, […]
# (1 picture or pasted object on this page, not shown here)
# in vitro [17] = conditions: human, CC50 (MTT assay), HCT-8
smiles,measurement,setting,value
"CCCCCCCCCCCCOC(=O)c1cc(O)c(O)c(O)c1 [LG, lauryl gallate]",IC50,"HCoV-229E-GFP [1]; read-out: IC50, HCoV-229E-GFP production, AV added 0 hpi",1.48 µM
same,IC50,"HCoV-229E-GFP [1]; read-out: IC50, HCoV-229E-GFP production, AV added 2 hpi",2.05 µM
same,IC50,"HCoV-229E-GFP [1]; read-out: IC50, HCoV-229E-GFP production, AV added −3 hpi (1 h before adsorption)",1.24 µM
same,HCoV-229E-GFP average titers,"HCoV-229E-GFP [1]; at 40 μM LG, average of addition times, no drug 4 ± 0.6 × 10^6",6 ± 2 × 10^2 PFU/mL
same,IC50,"HCoV-OC43 [2]; Betacoronavirus 1, OC43, read-out: IC50, HCoV-OC43 production, AV added 0 hpi",1.92 µM
same,IC50,"HCoV-OC43 [2]; Betacoronavirus 1, OC43, read-out: IC50, HCoV-OC43 production, AV added 2 hpi",2.97 µM
same,IC50,"HCoV-OC43 [2]; Betacoronavirus 1, OC43, read-out: IC50, HCoV-OC43 production, AV added −3 hpi (1 h before adsorption)",1.79 µM
same,HCoV-OC43 average titers,"HCoV-OC43 [2]; at 40 μM LG, average of addition times, no drug 3.5 ± 0.5 × 10^6",5 ± 0.01 × 10^1 PFU/mL
same,direct virucidal effect (change in virus titers),HCoV-OC43 [3],No decrease in virus titers
same,CC50,in vitro [4],124 µM
same,CC50,in vitro [5],90.9 µM
same,IC50,"[6]; Severe acute respiratory syndrome coronavirus 2, AV added 0 hpi",2.9 µM
same,IC50,"[6]; Severe acute respiratory syndrome coronavirus 2, AV added 2 hpi",3.09 µM
same,IC50,"[6]; Severe acute respiratory syndrome coronavirus 2, AV added −2 hpi (1 h before adsorption)",2.72 µM
same,SARS-CoV-2 average titers,"[6]; at 100 μM LG, average of addition times, no drug 3.4 ± 0.2 × 10^5",5 ± 0.01 × 10^1 PFU/mL
same,direct virucidal effect (change in virus titers),HCoV-229E-GFP [7],No decrease in virus titers
same,SI values for all tested HCoVs,[8],above 30
same,IC50,"[8]; average over all tested HCoVs, read-out: average IC50 value",1.6 µM
same,IC50,"[8]; range over tested HCoVs, read-out: IC50 values, range over HCoVs",1 to 2 µM
same,IC50,"[9]; Severe acute respiratory syndrome coronavirus 2, Vero C1008, Vero E6, omicron strain, AV from 1 h before adsorption, read-out: IC50, virus yield",1.36 ± 0.2 µM
same,SARS-CoV-2 isolate 39896362_AG titers,"[9]; at LG 64 μM, no drug 1 ± 0.1 × 10^5",5 ± 0.01 × 10^1 PFU/mL
same,HCoV-OC43 titers,HCoV-OC43 [10],2.2 ± 0.2 × 10^3 PFU/mL
same,toxicity to the animals,FMDV; in vivo,not found to be toxic
same,in vivo antiviral effect against FMDV,FMDV,reducing FMDV-induced mortality and viral load in mice
same,SARS-CoV-2 titers,"SARS-CoV-2 (MAD6); at 16 μM LG, no drug 3.2 ± 0.2 × 10^5",6 ± 0.2 × 10^3 PFU/mL
same,average DRI,"SARS-CoV-2 (MAD6); for the named drug over its combinations, at Fa = 0.5 to 0.95",4.25
same,selectivity index (SI=CC50/IC50),HCoV-229E-GFP [11],79.14
same,IC50,"HCoV-229E-GFP [11]; Huh-7, read-out: IC50, virus yield, Huh-7, AV from 1 h before adsorption, 24 hpi, Fig. 1",1.05 ± 0.3 µM
same,IC50,"HCoV-229E-GFP [11]; Huh-7, read-out: IC50, virus yield, specificity experiment (Fig. 3), Huh-7, 24 hpi",1.72 µM
same,HCoV-229E-GFP titers,"HCoV-229E-GFP [11]; at 100 μM, Fig. 3, no drug 4 ± 0.9 × 10^6",5 ± 0.2 × 10^2 PFU/mL
same,HCoV-229E-GFP titers,"HCoV-229E-GFP [11]; at LG 40 μM, 24 hpi, no drug 3 ± 0.5 × 10^6, Fig. 1",1.4 ± 0.2 × 10^2 PFU/mL
same,HCoV-229E-GFP titers,HCoV-229E-GFP [12],5 ± 0.2 × 10^2 PFU/mL
same,selectivity index (SI=CC50/IC50),HCoV-OC43 [13],33.74
same,IC50,"HCoV-OC43 [13]; Betacoronavirus 1, OC43, Huh-7, read-out: IC50, virus yield, Huh-7, AV from 1 h before adsorption, 48 hpi, Fig. 1",1.63 ± 0.6 µM
same,IC50,"HCoV-OC43 [13]; Betacoronavirus 1, OC43, Huh-7, read-out: IC50, virus yield, specificity experiment (Fig. 3), Huh-7, 48 hpi",1.14 µM
same,HCoV-OC43 titers,"HCoV-OC43 [13]; at 100 μM, Fig. 3, no drug 1.8 ± 0.9 × 10^6",5 ± 0.01 × 10^1 PFU/mL
same,HCoV-OC43 titers,"HCoV-OC43 [13]; at LG 40 μM, 48 hpi, no drug 3.1 ± 0.9 × 10^6, Fig. 1",5 ± 0.01 × 10^1 PFU/mL
same,IC50,"[14]; Severe acute respiratory syndrome coronavirus 2, Calu-3 2B4, read-out: IC50, virus yield, Calu3 2B4, Wuhan-Hu-1 strain, AV from 1 h before adsorption, 24 hpi, Fig. 1",2.26 ± 0.5 µM
same,SARS-CoV-2 titers,"[14]; at 100 μM, Fig. 3, no drug 3.±0.1 × 10^5",1 ± 0.1 × 10^2 PFU/mL
same,SARS-CoV-2 isolate MAD6 titers,"[14]; at LG 100 μM, 24 hpi, no drug 3.4 ± 1 × 10^5, Fig. 1",5 ± 0.01 × 10^1 PFU/mL
same,direct virucidal effect (change in virus titers),SARS-CoV-2,No decrease in virus titers
same,CC50,in vitro [15]; 24 h cell incubation with AV,83.1 µM
same,CC50,in vitro [15]; 48 h cell incubation with AV,55 µM
same,highest dose at which no effects were observed,[16],"1,000 mg kg-1 of feed"
same,inhibition of TGEV multiplication,TGEV,inhibited the multiplication
same,CC50,in vitro [17]; 24 h cell incubation with AV,55 µM
same,CC50,in vitro [17]; 48 h cell incubation with AV,50.4 µM
